Laboratory results reported in publication PMC12281485, “High-Throughput Screening of Potent Drug-like Molecules Targeting 17β-HSD10 for the Treatment of Alzheimer’s Disease and Cancer” (ACS Chemical Biology, 2025).
Read-outs that look alike come from different tables or passages of the source. Marks after values point to notes of the source that are not given here.

Columns and labels:
[1] = Mouse hepatocyte metabolic stability; type: in vitro ADME; design: k (elimination constant): unit not given here; settings: mouse hepatocytes; for Heps category: metabolism category; for Cl (clearance): limits of quantitation 0.5 and 50; for half-life: read-out: T1/2 (half-life)
Procedure: (§1) Hepatocyte isolation, hepatocyte incubations for metabolic stability, plasma protein binding (PPB) experiments, and LC/MS sample analysis were carried out as previously described in Brandon et al. and MacLeod et al.
XLfit (IDBS, UK) was used to calculate the exponential decay and the rate constant (k) from the ratio of the peak area of the test compound to the internal standard at each time point. […] Verapamil, 7-ethoxycoumarin, 7-hydroxycoumarin, and phthalazine were used as positive controls to confirm acceptable assay performance. […] Values were transferred to RStudio v1.3.1093 (Posit, Boston, MA, USA) for generation of scatter plots and heatmaps using the ggplot2 package (Wickham 2016).

17β-HSD10 [2] = biological target: T1, 17β-HSD10 (Homo sapiens, UniProt Q99714); design: method as in Kissinger et al.; settings: Table 5, ref Kissinger et al.; cited from earlier work
T1 construct: Recombinant 17β-HSD10 was expressed and purified as previously described in Aitken et al; made in house
T1 sequence (Q99714 1-261): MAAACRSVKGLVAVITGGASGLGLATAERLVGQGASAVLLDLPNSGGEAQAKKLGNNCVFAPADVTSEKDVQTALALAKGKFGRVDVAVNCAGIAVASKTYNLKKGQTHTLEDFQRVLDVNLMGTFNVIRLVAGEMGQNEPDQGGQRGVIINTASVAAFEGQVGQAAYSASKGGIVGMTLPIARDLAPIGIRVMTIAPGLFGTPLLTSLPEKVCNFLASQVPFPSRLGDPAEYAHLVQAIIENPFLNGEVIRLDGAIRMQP

17β-HSD10 [3] = biological target: T1, 17β-HSD10; assay: 17β-HSD10 enzyme inhibition dose-response assay (acetoacetyl-CoA/NADH, absorbance 340 nm); type: biochemical
Procedure: Recombinant 17β-HSD10 was expressed and purified as previously described in Aitken et al.
17β-HSD10 screening was carried out as described in Aitken et al. with the exception that experiments were also conducted in clear-bottom 1536-well low-volume microplates (Corning) with a final assay volume of 20 μL. For primary screening, an endpoint assay format was adopted, in which an Echo acoustic liquid dispenser (Labcyte) was used to transfer 20 nL of either DMSO control […] or test compounds (10 μM) to the assay plate. 10 μL of the 17β-HSD10 enzyme in an assay buffer (2.5 nM) was then added to the plates using the Preddator liquid handling robot (Redd and Whyte), and plates were incubated at RT for 15 min. 10 μL of the substrate mixture (100 μM acetoacetyl-CoA and 100 μM NADH) was added with the Preddator. To start the reaction, the plates were left to incubate for 35 min at RT before the absorbance at 340 nm was read on the EnVision plate reader (PerkinElmer). For the kinetic assay format and dose-response follow-up experiments, the same protocol was adopted, except that the absorbance at 340 nm was monitored constantly for 45 min from immediately after the reaction was started.

17β-HSD10 [4] = biological target: T1, 17β-HSD10; assay: Acetoacetyl-CoA and NADH enzyme kinetics (mode of inhibition); type: biochemical; settings: for mode of inhibition with respect to acetoacetyl-CoA (AcAc): AcAc diluted from 1000 μM, 100 μM NADH; for mode of inhibition with respect to NADH: AcAc in excess at 800 μM, NADH diluted from 150 μM
Procedure: To determine the mode of inhibition, a matrix titration was used to calculate the kinetic parameters for acetoacetyl-CoA and NADH and the effect of 17β-HSD10 concentration upon reaction rate. Previously determined conditions as described in Aitken et al. were used. Data collected from the experiment were analyzed by plotting reaction progress curves to calculate the initial velocities, Vmax, and Km values using the Michaelis–Menten equation (XLFit, ID Business Solutions). Hanes Woolf plots were used to determine the mechanism of inhibition. Two compounds, ESC1002033 and ESC1002082, representative of the two unique clusters, were investigated for their mechanism of action against the substrates, NADH (Supplementary C, Figure S2) and AcetoAcetyl-CoA (AcAc) (Supplementary C, Figure S3). Both ESC1002033 and ESC1002082 inhibitors were tested as a 12-point serial dilution series with a maximal concentration of 2.5 μM. […] When investigating the effect of AcAc, it was diluted from 1000 μM with an excess of 100 μM NADH. Both inhibitors appear to have a similar mechanism of action. For NADH, with increasing concentration of the inhibitor, there is a decrease in Vmax (Figure SC1B) with no change in Km (Figure SC1C), which is characteristic of non-competitive (mixed) inhibition. This is also reflected by the convergence of the data to the left of the y axis on the Lineweaver–Burke plot (Figure SC1D). In contrast, with AcAc present, there was an increase in Kmapp with increasing inhibitor concentrations (Figure SC2C), which is characteristic of competitive inhibition. […] However, the data in Figure SC2D have been fitted for substrate inhibition (Y = V max × X/(Km + X × (1 + X/K i))), and the diagnostic Lineweaver–Burke plot also supports the conclusion that inhibition is competitive with AcAc (Figure SC2D).

[5] = tested on: HEK293 cells overexpressing 17β-HSD10; assay: Alamar Blue cell viability assay; type: cell-based, human; settings: 50 μM compound, 24 h, n = 3 ± SD
Procedure: (§2) Cell viability was assessed via fluorescence change using the commercially available Alamar Blue from ThermoFisher. HEK293 cells overexpressing 17β-HSD10 were cultured in phenol-red free media (10% FBS, 1 mM sodium pyruvate, 100 units penicillin, 0.1 mg mL^–1 streptomycin, and 2 mM L-glutamine) and seeded at a density of 10,000 cells per well (100 μL, 96-well plates). […] Treated cells were then incubated at 37 °C and CO2 (5%) for 24 h before the assay was performed as per the manufacturer’s instructions. Fluorescence was measured at 530 nm excitation and 590 nm emission using the SpectraMaxM2e spectrophotometer.

17β-HSD10 [6] = biological target: T1, 17β-HSD10; assay: (−)-CHANA fluorescence assay of cellular 17β-HSD10 activity; type: cell-based; settings: read-out: cellular 17β-HSD10 activity mean pEC50 (converted)
Procedure: (−)–CHANA ((−)-cyclohexenyl amino naphthalene alcohol) is a fluorogenic probe that can be used to detect 17β-HSD10 activity in living cells. HEK293 17β-HSD10 cells were seeded at a density of 10,000 cells per well (100 μL, 96-well black plates) in phenol-red free media (10% FBS, 1 mM sodium pyruvate, 100 units penicillin, 0.1 mg mL^–1 streptomycin, and 2 mM L-glutamine). […] The fluorogenic probe (−)–CHANA was then added to each well to give a final assay concentration of 20 μM. Fluorescence was immediately measured using the FLUOstar Optima microplate reader (excitation = 380 nm, emission = 520 nm, orbital averaging = 3 mm), and the initial reaction was monitored for 3–4 h. EC50 was calculated from the control-subtracted triplicates using nonlinear regression (four parameters) of GraphPad Prism 5 software. The Final EC50 and SEM values were obtained as a mean of at least three independent measurements.

[7] = tested on: HEK293 cells overexpressing 17β-HSD10; assay: LDH cytotoxicity assay; type: cell-based, human; settings: 50 μM compound, 24 h, n = 3 ± SD
Procedure: Cell cytotoxicity was assessed via the measurement of LDH leakage into the culture medium using a commercially available kit from Pierce (Thermo Scientific cat no. 88953). This was carried out in accordance with the kit guidelines, with the activity of LDH being calculated from the change in absorbance at […]. Human embryonic kidney (HEK293) cells overexpressing 17β-HSD10 were cultured in phenol-red free media (10% FBS, 1 mM sodium pyruvate, 100 units penicillin, 0.1 mg mL^–1 streptomycin, and 2 mM L-glutamine) and seeded at a density of 10,000 cells per well (100 μL, 96-well plates). […] Treated cells were then incubated at 37 °C and CO2 (5%) for 24 h before the LDH assay was performed as per the manufacturer’s instructions. Spontaneous control (water) and maximum control (lysis buffer) were used in accordance with the kit guide. Absorbance was measured at 490 and 680 nm using the SpectraMaxM2e spectrophotometer. The measured LDH activity was used to calculate %cytotoxicity using the following equation (eq ): %cytotoxicity=(compoundtreatedLDHactivity−spontaneousLDHactivity)/(maximumLDHactivity−spontaneousLDHactivity)×100 1

[8] = Mouse plasma protein binding; type: in vitro ADME; settings: read-out: mouse PPB (% free)
Procedure: as §1

[9] = Alamar Blue cell viability assay; type: cell-based, human; settings: human, HEK293 cells overexpressing 17β-HSD10, 50 μM compound, n = 3 ± SD, read-out: Alamar Blue % viability (50 μM dose)
Procedure: as §2

[10] = Table 2, chemically modified cluster hit compounds, read-out: 17β-HSD10 pIC50 (converted)
[11] = Table 5, read-out: mean 17β-HSD10 pIC50 (converted)
[12] = Table 4, 17β-HSD10 overexpressing HEK293 cells, CHANA fluorescence assay
[13] = Table 3, chemically modified singleton hit compound series, read-out: 17β-HSD10 pIC50 (converted)
[14] = Table 5, HEK293 17β-HSD10 cells, CHANA assay

Row | k (elimination constant) [1] | Heps category [1] | Cl (clearance) [1] | half-life [1] | EC50 (17β-HSD10 [6]; [12]) | EC50 (17β-HSD10 [6]; [14]) | SMILES | Alamar Blue % viability (50 μM dose) [5] | LDH % toxicity (50 μM dose) [7] | also measured
1 | 0.11 | High | >50 mL/min/g liver | – | – | – | O=C(C(c1ccccc1)n1cnc2[nH]ncc2c1=S)N1CCCCCC1 (centres unmarked) [AG18051, reference compound] | – | – | T1/2 (half-life) [1]: 6.6 min; mean 17β-HSD10 pIC50 (17β-HSD10 [2]): 7.04 ^b
2 | 0.013 | mod | 6.2 mL/min/g liver | 53.8 min | – | – | CC(C)CN(C(=O)c1ccccc1F)c1cccc(N(C)Cc2cnc[nH]2)c1 [ESC1002033] | – | – | IC50 (17β-HSD10 [3]; [10]): 200 nM; IC50 (17β-HSD10 [3]; [11]): 200 nM; mode of inhibition with respect to acetoacetyl-CoA (AcAc) (17β-HSD10 [4]): competitively; mode of inhibition with respect to NADH (17β-HSD10 [4]): non-competitively
3 | – | – | – | – | – | – | COc1ccc(-c2ccccc2C2CCCN2C(=O)c2sccc2C)cn1 (centres unmarked) [ESC1002082] | – | – | LipE (17β-HSD10 [3]): 1.45; LipE (17β-HSD10 [3]; Table 1, lipophilic efficiency): 1.45; mode of inhibition with respect to acetoacetyl-CoA (AcAc) (17β-HSD10 [4]): competitively; mode of inhibition with respect to NADH (17β-HSD10 [4]): non-competitively
4 | – | – | – | – | 1130 nM | – | COc1ccc(-c2ccccc2[C@H]2CCCN2C(=O)c2sccc2C)cn1 [ESC1002162] | 78.79 ± 0.91% | 6.84 ± 0.02% | 17β-HSD10 pIC50 (17β-HSD10 [3]; Supplementary B, Table S1 and text, enantiomers): 6.31
5 | – | – | – | – | 2460 nM | – | Cc1ncc(CN(C)c2cccc(N(CC(C)C)C(=O)c3ccccc3F)c2)[nH]1 [ESC1002203] | 82.98 ± 1.25% | 6.64 ± 0.03% | fold less potent than ESC1002033 (17β-HSD10 [3]; relative to ESC1002033): approximately 3 fold
6 | – | – | – | – | 671 nM | – | COc1cccc(-c2ccccc2C2CCCN2C(=O)c2sccc2C)c1 (centres unmarked) [ESC1002421] | 102.63 ± 1.32% | 5.16 ± 0.01% | IC50 (17β-HSD10 [3]; [13]): 186 nM
7 | 0.018 | high | 8.6 mL/min/g liver | 38.5 min | 141 nM | 141 nM | CC(C)CN(C(=O)c1c(F)cccc1F)c1cccc(N(C)Cc2c[nH]cn2)c1 [ESC1002456] | – | 4.78 ± 0.01% | fraction unbound [8]: 0.089; viability at 24 h, 50 μM [9]: 79.2 ± 1.21%; IC50 (17β-HSD10 [3]; [10]): 138 nM; IC50 (17β-HSD10 [3]; [11]): 138 nM
8 | 0.012 | mod | 5.8 mL/min/g liver | 57.2 min | 367 nM | 367 nM | Cc1ccc(C(=O)N(CC(C)C)c2cccc(N(C)Cc3c[nH]cn3)c2)c(F)c1 [ESC1002575] | – | 4.78 ± 0.02% | fraction unbound [8]: 0.076; viability at 24 h, 50 μM [9]: 92.57 ± 0.47%; IC50 (17β-HSD10 [3]; [10]): 269 nM; IC50 (17β-HSD10 [3]; [11]): 269 nM
9 | 0.02 | Mod | 7.2 mL/min/g liver | – | 511 nM | 511 nM | Cc1ccsc1C(=O)N(CC(C)C)c1cccc(N(C)Cc2c[nH]cn2)c1 [ESC1002597] | 78.78 ± 1.72% | 4.98 ± 0.04% | mean 17β-HSD10 pIC50 (17β-HSD10 [3]; Table 5): 6.4; T1/2 (half-life) [1]: 46.2 min
10 | – | – | – | – | 232 nM | – | O=C(c1sccc1Cl)N1CCCC1c1ccccc1-c1ccc(F)c(O)c1 (centres unmarked) [ESC1002838] | 94.28 ± 1.31% | 5.58 ± 0.03% | IC50 (17β-HSD10 [3]; [13]): 51.3 nM
11 | 0.17 | high | >50 mL/min/g liver | 4 min | 40 nM | 40 nM | O=C(c1sccc1Cl)N1CCC[C@H]1c1ccccc1-c1cc(O)ccc1F [ESC1002842] | – | 5.90 ± 0.004% | fraction unbound [8]: 0.034; viability at 24 h, 50 μM [9]: 82.44 ± 0.32%; IC50 (17β-HSD10 [3]; [13]): 40.7 nM
